Laboratory results: patent US10981932B2, “Macrocyclic indole derivatives” (Bayer Aktiengesellschaft, priority 2016, dated 2021)
Counter-ions that a name gives are not always drawn. Like-named read-outs stand apart in the source and are kept apart here.

How the values were obtained:
[1] = system: SUDHL10; assay: Anti-proliferative effect (CellTiter-Glo, 72 h), SUDHL10; assay type: cell-based; conditions: SUDHL10 cells, antiproliferation, 72 h incubation, median, read-out: Antiproli SUDHL10 [M] (median)
Procedure, shortened: (§1)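 After seeding, one plate is read right away by CellTiter-Glo luminescence to fix time zero. The treated plates stay at 37 °C in humidified air for 72 h and are then measured with the same reagent and 10 min incubation.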

[2] = system: MV-4-11; assay: Anti-proliferative effect (CellTiter-Glo, 72 h), MV-4-11; assay type: cell-based; conditions: MV-4-11 cells, median, read-out: IC50 antiproliferation assay MV-4-11 [M] (median)
Procedure, shortened: as §1

[3] = system: OPM2; assay: Anti-proliferative effect (CellTiter-Glo, 72 h), OPM2; assay type: cell-based; conditions: OPM2 cells, median, read-out: IC50 antiproliferation assay OPM2 [M] (median)
Procedure, shortened: as §1

[4] = system: SUDHL5; assay: Induction of cytotoxicity (CellTiter-Glo, 5 h), SUDHL5
[5] = system: SUDHL10; assay: Induction of cytotoxicity (CellTiter-Glo, 5 h), SUDHL10
Method: Therefore, cytotoxicity assays were run in parallel in SUDHL5 and SUDHL10 cells.
The different cell lines were plated in culture medium (RPMI 1640 [GIBCO #22400-089]supplemented with 10% Fetal Bovine Serum) at a density of 3.300 cells in 30 μl/well in a sterile, solid black, flat bottom, polystyrene, TC-treated 384-well microplate (Corning #3571) using Multidrop Combi Reagent Dispenser. As a control, medium without cells was also added to the plate. Cells were incubated in a humidified incubator at 37° C. overnight. On the next day, the cells were treated with compounds (stock solution, 10 mM in DMSO) using the HP D300 Digital Dispenser in a concentration range of 3.3×10e-5 M (33 μM) to 5×10e-9 M (5 nM) in a single-dot curve with at least 16 dilutions and a DMSO concentration of 0.33%. Rim wells were excluded. The cells were incubated for 5 h hours in a humidified incubator at 37° C. After this incubation, 30 μl of CellTiter-Glo@ Luminescent Cell Viability reagent (Promega, G7573) was added to each well using the Multidrop Combi Reagent Dispenser, followed by 15 min incubation on a shaker at room temperature. Finally, luminescence was read at 0.1 ms, with a gain of 3000 using the PHERAstar FS microplate reader (BMG Labtech).
The Bella DRC Master Sheet was used to calculate IC50s, with fixed CI=0 and C0=1.

[6] = system: SUDHL5; assay: Induction of caspase-3/7 activity (Caspase-Glo 3/7), SUDHL5; assay type: cell-based; conditions: caspase-3/7 induction, SUDHL5 cells, 3 h treatment, median
Procedure, shortened: (§2)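 Apoptosis induction measured as caspase-3/7 activity (Caspase-Glo 3/7) in DLBCL lines after 3 h treatment at 37 °C; EC50 derived relative to the reference compound's maximal induction, with C0 fixed at 1.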

[7] = system: SUDHL5; assay: Anti-proliferative effect (CellTiter-Glo, 72 h), SUDHL5; assay type: cell-based; conditions: SUDHL5 cells, antiproliferation, 72 h incubation, median, read-out: Antiproli SUDHL5 [M] (median)
Procedure, shortened: as §1

[8] = target: MCL-1 (Homo sapiens, UniProt Q07820); assay: Protein-protein interaction assay MCL-1/Noxa BH3 peptide (MCL-1 assay), TR-FRET; assay type: binding; conditions: MBP-MCL-1 / Noxa BH3-derived peptide, median
Procedure, shortened: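 Inhibition values were normalized between DMSO controls with all reagents and controls lacking MCL-1. The binding competition used 1 nM MBP-MCL-1 in pH 7 Tris buffer containing 50 mM KF and 100 mM NaCl, with a 10 min compound preincubation at 22 °C.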

[9] = system: A2780; assay: Anti-proliferative effect (CellTiter-Glo, 72 h), A2780; assay type: cell-based; conditions: A2780 cells, median, read-out: IC50 antiproliferation assay A2780 [M] (median)
Procedure, shortened: as §1

[10] = system: SUDHL10; assay: Induction of caspase-3/7 activity (Caspase-Glo 3/7), SUDHL10; assay type: cell-based; conditions: caspase-3/7 induction, SUDHL10 cells, 3 h treatment, median
Procedure, shortened: as §2

[11] = Homo sapiens, SU-DHL-5, 5 h, read-out: Cytotox SUDHL5 [M] (median), SUDHL5 cells, cytotoxicity induction, CellTiter-Glo, 5 h incubation, median
[12] = Homo sapiens, SU-DHL10, 5 h, read-out: Cytotox SUDHL10 [M] (median), SUDHL10 cells, cytotoxicity induction, CellTiter-Glo, 5 h incubation, median
[13] = read-out: Cytotox SUDHL5 [M] (median), SUDHL5 cells, cytotoxicity induction, CellTiter-Glo, 5 h incubation, median
[14] = read-out: Cytotox SUDHL10 [M] (median), SUDHL10 cells, cytotoxicity induction, CellTiter-Glo, 5 h incubation, median

Sequence of MCL-1 (Q07820 whole entry): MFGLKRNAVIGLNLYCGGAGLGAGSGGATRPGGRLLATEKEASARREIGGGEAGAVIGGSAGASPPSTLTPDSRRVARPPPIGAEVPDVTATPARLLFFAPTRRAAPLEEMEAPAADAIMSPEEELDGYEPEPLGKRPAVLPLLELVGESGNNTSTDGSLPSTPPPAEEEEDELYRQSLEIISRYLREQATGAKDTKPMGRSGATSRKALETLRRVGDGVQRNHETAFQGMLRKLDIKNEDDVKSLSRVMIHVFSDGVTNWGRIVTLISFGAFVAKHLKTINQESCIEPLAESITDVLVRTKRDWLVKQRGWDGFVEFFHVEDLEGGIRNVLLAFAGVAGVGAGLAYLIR

Row | SMILES | IC50 ([1]; Homo sapiens, SU-DHL10, 72 h) | IC50 ([2]; Homo sapiens, MV4-11, 72 h) | EC50 ([6]; Homo sapiens, SU-DHL-5, 3 h) | IC50 ([7]; Homo sapiens, SU-DHL-5, 72 h) | IC50 [8] | IC50 ([9]; Homo sapiens, A2780, 72 h) | EC50 ([10]; Homo sapiens, SU-DHL10, 3 h) | IC50 [1] | IC50 [2] | EC50 [6] | IC50 [7] | IC50 [9] | EC50 [10] | IC50 ([3]; Homo sapiens, OPM-2, 72 h) | IC50 [4, 11] | IC50 [5, 12] | IC50 [3] | IC50 [4, 13] | IC50 [5, 14]
1 | Cn1nc(CN2CCOCC2)c2c1COCCCCn1c(C(=O)O)c(CCCOc3cccc4ccccc34)c3cccc-2c31 (single isomer, unassigned; enantiomer 2) [Example 137, 1-methyl-3-(morpholin-4-ylmethyl)-7-[3-(naphthalen-1-yloxy)propyl]-1,10,11,12,13,15-hexahydropyrazolo[4′,3′:9,10][1,6]oxazacycloundecino[8,7,6-hi]indole-8-carboxylic Acid (Enantiomer 2)] | 5.9e-06 M | 6.78e-06 M | 12.9 µM | 2.67e-06 M | 0.0107 µM | > 3.3e-05 M | 22.1 µM |  |  |  |  |  |  | > 3.3e-05 M | 8.98e-06 M | 3.06e-05 M |  |  | 
2 | Cn1nc(COc2ccc(N3CCOCC3)cc2)c2c1COCC=CCn1c(C(=O)O)c(CCCOc3cccc4ccccc34)c3cccc-2c31 (single isomer, unassigned; enantiomer 2) [Example 120, (−)-(E/Z)-1-methyl-3-{[4-(morpholin-4-yl)phenoxy]methyl}-7-[3-(naphthalen-1-yloxy)propyl]-1,10,13,15-tetrahydropyrazolo[4′,3′:9,10][1,6]oxazacycloundecino[8,7,6-hi]indole-8-carboxylic Acid (Enantiomer 2)] |  |  |  |  | 0.0272 µM |  |  | 1.4e-05 M | 1.13e-05 M | 31.4 µM | 1.08e-05 M | 1.11e-05 M | 18.4 µM |  |  |  | 4.36e-06 M | 3.21e-05 M | > 3.3e-05 M
3 | CN1CCCn2c(C(=O)O)c(CCCOc3cccc4ccccc34)c3cccc(c32)-c2c(CNCC(F)(F)F)nn(C)c2C1 (single isomer, unassigned; enantiomer 2) [Example 131, 7,9-dimethyl-1-[3-(naphthalen-1-yloxy)propyl]-11-{[(2,2,2-trifluoroethyl)amino]methyl}-4,5,6,7,8,9-hexahydropyrazolo[3′,4′:7,8][1,5]diazecino[9,10,1-hi]indole-2-carboxylic acid-N-ethylethanamine Salt (Enantiomer 2)] |  | 6.24e-06 M |  |  | 0.0191 µM |  |  | 1.16e-05 M |  | 25.9 µM | 1.17e-05 M | 1.48e-05 M | 30.9 µM |  |  |  | 1.71e-05 M | 1.46e-05 M | 2.88e-05 M
4 | Cn1nc(COc2ccc(N3CCOCC3)cc2)c2c1COCC=CCn1c(C(=O)O)c(CCCOc3cccc4ccccc34)c3cccc-2c31 (single isomer, unassigned; enantiomer 1) [Example 119, (+)-E/Z)-1-methyl-3-{[4-(morpholin-4-yl)phenoxy]methyl}-7-[3-(naphthalen-1-yloxy)propyl]-1,10,13,15-tetrahydropyrazolo[4′,3′:9,10][1,6]oxazacycloundecino[8,7,6-hi]indole-8-carboxylic Acid (Enantiomer 1)] | 2e-05 M | 8.87e-06 M | 19.5 µM | 1.35e-05 M | 0.0213 µM | 1.21e-05 M | 22.5 µM |  |  |  |  |  |  | 6.62e-06 M | 2.85e-05 M | > 3.3e-05 M |  |  | 

More lines, main results first:

Row | IC50 ([1]; Homo sapiens, SU-DHL10, 72 h) | IC50 ([2]; Homo sapiens, MV4-11, 72 h) | EC50 ([6]; Homo sapiens, SU-DHL-5, 3 h) | IC50 ([7]; Homo sapiens, SU-DHL-5, 72 h) | IC50 [8] | IC50 ([9]; Homo sapiens, A2780, 72 h) | EC50 ([10]; Homo sapiens, SU-DHL10, 3 h) | IC50 [1] | IC50 [2] | EC50 [6] | IC50 [7] | IC50 [9] | EC50 [10] | SMILES | IC50 ([3]; Homo sapiens, OPM-2, 72 h) | IC50 [4, 11] | IC50 [5, 12] | IC50 [3] | IC50 [4, 13] | IC50 [5, 14]
5 |  |  |  |  | 0.0688 µM |  |  | 8.96e-06 M | 6.78e-06 M | 18.3 µM | 5.72e-06 M | > 3.3e-05 M | 20.4 µM | Cn1nc(COc2ccc(N3CCN(S(=O)(=O)C4CC4)CC3)cc2)c2c1COCCCCn1c(C(=O)O)c(CCCOc3cccc4ccccc34)c3cccc-2c31 (single isomer, unassigned; enantiomer 1) [Example 1-12, 3-({4-[4-(cyclopropylsulfonyl)piperazin-1-yl]phenoxy}methyl)-1-methyl-7-[3-(naphthalen-1-yloxy)propyl]-1,10,11,12,13,15-hexahydropyrazolo[4′,3′:9,10][1,6]oxazacycloundecino[8,7,6-hi]indole-8-carboxylic Acid (Enantiomer 1)] |  |  |  | > 3.3e-05 M | 1.73e-05 M | 1.43e-05 M
6 | 1.44e-06 M | 3.57e-06 M | 0.579 µM | 9.83e-07 M | 0.00187 µM | 6.31e-06 M | 0.953 µM |  |  |  |  |  |  | Cn1nc(COc2ccc(N3CCN(S(C)(=O)=O)CC3)cc2)c2c1COCCCCn1c(C(=O)O)c(CCCOc3cccc4ccccc34)c3cccc-2c31 (racemic) [Example 1-8, (rac)-1-methyl-3-({4-[4-(methylsulfonyl)piperazin-1-yl]phenoxy}methyl)-7-[3-(naphthalen-1-yloxy)propyl]-1,10,11,12,13,15-hexahydropyrazolo[4′,3′:9,10][1,6]oxazacycloundecino[8,7,6-hi]indole-8-carboxylic Acid] | 1.24e-06 M | 8.33e-07 M | 1.07e-06 M |  |  | 
7 |  |  |  |  | 0.11 µM |  |  | 3.25e-05 M | 1.96e-05 M | 26.9 µM | 2.56e-05 M | > 3.3e-05 M | > 33 µM | Cc1c2c(nn1C)CN(C)CCCn1c(C(=O)O)c(CCCOc3cccc4ccccc34)c3cccc-2c31 (single isomer, unassigned; enantiomer 2) [Example 1-35, 7,10,11-trimethyl-1-[3-(naphthalen-1-yloxy)propyl]-4,5,6,7,8,10-hexahydropyrazolo[3′,4′:7,8][1,5]diazecino[9,10,1-hi]indole-2-carboxylic Acid-N-ethylethanamine Salt (Enantiomer 2)] |  |  |  | > 3.3e-05 M | 2.02e-05 M | 1.18e-05 M
8 | 4.08e-06 M | 6.94e-06 M |  | 4.55e-06 M | 0.0185 µM | 8.7e-06 M | 8.86 µM |  |  | 7.09 µM |  |  |  | CCS(=O)(=O)N1CCN(c2ccc(N3CCCn4c(C(=O)O)c(CCCOc5cccc6ccccc56)c5cccc(c54)-c4c(C)nn(C)c4C3)cc2)CC1 (single isomer, unassigned; enantiomer 1) [Example 1-109, 7-{4-[4-(Ethylsulfonyl)piperazin-1-yl]phenyl}-9,11-dimethyl-1-(3-(1-naphthyloxy)propyl-4,5,6,7,8,9-hexahydropyrazolo[3′,4′:7,8][1,5]diazecino[9,10,1-hi]indole-2-carboxylic Acid (Enantiomer 1)] | 8.14e-06 M | 8.44e-06 M | 1.48e-05 M |  |  | 
9 | > 3.3e-05 M |  |  | 1.31e-05 M | 0.00671 µM | > 3.3e-05 M |  |  | 8.89e-06 M | 4.5 µM |  |  | 6.15 µM | Cc1c2c(nn1C)CN(C)CCCn1c(C(=O)O)c(CCCOc3cccc4ccccc34)c3cccc-2c31 (single isomer, unassigned; enantiomer 1) [Example 1-34, 7,10,11-trimethyl-1-[3-(naphthalen-1-yloxy)propyl]-4,5,6,7,8,10-hexahydropyrazolo[3′,4′:7,8][1,5]diazecino[9,10,1-hi]indole-2-carboxylic Acid-N-ethylethanamine Salt (Enantiomer 1)] | 2.69e-05 M |  |  |  | 3.36e-06 M | 4.53e-06 M
